One assay relates to Plasmopara viticola. Nature of the assay: Greenhouse test against downy mildew, preventive application to vine leaves (Example 4). The class given is in vivo, Plasmopara viticola on vine plants, cv. Dolcetto. The following applies: for pest or weed control at 0.2 ppm: 0.20 ppm. How it is done: Determination of the fungicidal efficacy against downy mildew (Plasmopara viticola) in preventive application to vine leaves in greenhouse.
Leaves of vine plants, cv. Dolcetto, grown up in pots in conditioned environment at 25° C. and 60% relative humidity, were sprayed on both sides with hydroacetonic solutions (20% of acetone by volume) of the compounds under testing, the potassium phosphite (K2HPO3+KH2PO3) aqueous solutions and the mixtures of both components.
Seven days after the treatments, the leaves of treated plants and untreated controls were sprayed on the lower surface with aqueous suspension of Plasmopara viticola conidia (200.000 conidia/ml); after beeing kept for 24 h at 21° C. in environment moist at saturation, the plants were transfered to other conditioned environment at 70% relative humidity and 21° C. for 7 days.
After this period the degree of infection was evaluated and the activity of the compounds tested was expressed as % of disease control in comparison to the untreated controls: 100=healty plant; 0=completely infected plant.
In tables 6-20 are reported the results obtained for the compounds tested alone and in mixture with potassium phosphite at the indicated dosages. When the % disease control value found is higher than the value expected applying the Limpel formula (see Example 3), a synergic effect is verified.

The next assay deals with Phytophthora infestans. It counts as in vivo, Phytophthora infestans on potato plants, Miura variety. The following applies: 1400 g/hl active principle; average of 3 tests on potato plants in Great Britain, 2002.

Like-named read-outs stand apart in the source and are kept apart here.

For the molecule `CC(C)OC(=O)N[C@H](C(=O)N[C@H](C)c1nc2ccc(F)cc2s1)C(C)C` [benthiavalicarb], the pest or weed control at 0.25 ppm in the assay on Plasmopara viticola (Plasmopara viticola, topical, 168 h, 0.25 ppm, Table 10, read-out: % Disease Control: found) was found to be 47%.

`COCC(=O)N(c1c(C)cccc1C)C(C)C(=O)OC` (centres unmarked) [metalaxyl, methyl N-(2-methoxyacetyl)-N-2,6-xylyl-RS-alaninate]: in the assay on Plasmopara viticola (Plasmopara viticola, topical, 168 h, Table 7, read-out: % Disease Control: found), the pest or weed control at 0.2 ppm was 45%.

For the molecule `N#Cc1c(Cl)c(Cl)c(Cl)c(C#N)c1Cl` [chlorothalonil, 1,3-dicyano-2,4,5,6-tetrachlorobenzene], the pest or weed control at 7.5 ppm with Plasmopara viticola (Plasmopara viticola, topical, 168 h, 7.5 ppm, Table 16, read-out: % Disease Control: found) was found to be 46%.

On to `CC1(c2ccc(Oc3ccccc3)cc2)OC(=O)N(Nc2ccccc2)C1=O` (centres unmarked) [famoxadone, 5-methyl-5-(4-phenoxyphenyl)-3-(phenylamino)oxazolidin-2,4-dione], for which the pest or weed control at 0.45 ppm in the assay on Plasmopara viticola (Plasmopara viticola, topical, 168 h, 0.45 ppm, Table 12, read-out: % Disease Control: found) amounted to 56%.

For potassium phosphite (K2HPO3+KH2PO3), in the assay with Plasmopara viticola (60 ppm, inoculation 7 days after treatment), the “% Disease Control: found” value was determined as 35%. In addition, in the assay with Phytophthora infestans, the “% disease control leaves” value is 23%.

Regarding `COc1ccc(C(=CC(=O)N2CCOCC2)c2ccc(Cl)cc2)cc1OC` [dimethomorph, (E,Z)-4-[3-(4-chlorophenyl)-3-(3,4-dimethoxyphenyl)acryloyl]-morpholine], in the assay with Plasmopara viticola (Plasmopara viticola, topical, 168 h, 0.45 ppm, Table 15, read-out: % Disease Control: found), the pest or weed control at 0.45 ppm is 73%.

Turning to `Cc1ccc(-c2c(Cl)nc(C#N)n2S(=O)(=O)N(C)C)cc1` [cyazofamide, 2-cyano-4-chloro-′5-(4-methylphenyl)-1-(N,N-dimethylaminosulfamoyl)-imidazole], in the assay with Plasmopara viticola (15 ppm, Table 14), the “% Disease Control: found” value is 68%.

Regarding `COCC(=O)N(c1c(C)cccc1C)[C@H](C)C(=O)OC` [mefenoxam, methyl N-(2-methoxyacetyl)-N-2,6-xylyl-R-alaninate], the pest or weed control at 0.1 ppm in the assay on Plasmopara viticola (Plasmopara viticola, topical, 168 h, 0.10 ppm, Table 8, read-out: % Disease Control: found) is 48%.

For `CCNC(=O)NC(=O)C(C#N)=NOC` [cymoxanil, 1-(2-cyano-2-methoxyimino-acetyl)-3-ethyl urea], in the assay with Plasmopara viticola (Plasmopara viticola, topical, 168 h, 30 ppm, Table 6, read-out: % Disease Control: found), the pest or weed control at 30 ppm was 59%.

Consider `Cc1ccc(C(C)NC(=O)C(NC(=O)OC(C)C)C(C)C)cc1` (centres unmarked) [iprovalicarb, O-(1-methyl-ethyl)-N-[2-methyl-1-[[[1-(4-methylphenyl)-ethyl]amino]carbonyl]propyl]carbamate], for which, in the assay with Plasmopara viticola (0.45 ppm, Table 9), the “% Disease Control: found” value was determined as 50%.

As to `O=[N+]([O-])c1cc(C(F)(F)F)c(Cl)c([N+](=O)[O-])c1Nc1ncc(C(F)(F)F)cc1Cl` [fluazinam, 3-chloro-N-(3-chloro-5-trifluoromethyl-2-pyridyl)-α,α,α-trifluoro-2,6-dinitro-p-toluidine], in the assay with Plasmopara viticola (Plasmopara viticola, topical, 168 h, 20 ppm, Table 20, read-out: % Disease Control: found), the pest or weed control at 20 ppm is 48%.

On to `COCC(=O)N(c1c(C)cccc1C)N1CCOC1=O` [oxadixyl, 2-methoxy-N-(2-oxo-1,3-oxazolidin-3-yl)aceto-2′,6′-xylidide], for which the pest or weed control at 0.2 ppm with Plasmopara viticola (Plasmopara viticola, topical, 168 h, Table 18, read-out: % Disease Control: found) stood at 49%.

`CO/C=C(/C(=O)OC)c1ccccc1Oc1cc(Oc2ccccc2C#N)ncn1` [azoxystrobin]: the “% Disease Control: found” value in the assay on Plasmopara viticola (0.11 ppm, Table 11) turned out to be 69%.
